Measurements published in patent US20260317356A1, “SMALL MOLECULE MODULATORS OF OGG1” (AZKARRA THERAPEUTICS, INC., priority 2023, published 2026).

target: hOGG1 (Homo sapiens, UniProt O15527); assay: Biochemical fluorescence assay to measure enzymatic activity of hOGG1 (OGG1/APEX IC50); set-up: Protein His-hOGG1 (12-323) was prepared; His (N); host or cells: E. coli; conditions: 1 nM OGG1+2 nM APEX+6 nM dsDNA (8-oxo-dG substrate); pH 7.5; RT 40 min; read-out: OGG1/APEX IC50
Protocol: Biological Example 1: Biochemical Assay to Measure Enzymatic Activity of hOGG1 (OGG1/APEX IC50)
The reported fluorescence-based assay (Donley et al ACS Chem Biol 2015; 10 (10), 2334-2343) was modified to include hAPE1/APEX1 protein. The oligonucleotide substrate with 8-oxo-dG lesion at X was prepared (LGC Biosearch, Petaluma, CA):
Protein His-hOGG1 (12-323) was prepared by Chempartner Corporation via E. coliexpression and purification by Ni-NTA and S200 column to afford 95% purity by SDS-PAGE and SEC-HPLC analysis and hAPE1/APEX1 was purchased (SinoBiological). The assay was run in 384-well plates following the general procedure: (1) compound dilution; (2) addition of hOGG1/APEX1 to compound wells; (3) addition of DNA substrate to compound wells; (4) read Ex520/Em600 (TAMRA) fluorescence signal after 40 minutes; (5) calculate % inhibition/compound concentration; (6) calculate dose-response curve and IC50 value.
• (1) 20 mM of compound solution was prepared in DMSO; • (2) Compounds were diluted to 10 mM in DMSO in ECHO Source plate (Labcyte PP-0200), by mixing […] DMSO; • (3) 4× dilution of compounds, for 10 points, by mixing […] DMSO; and • (4) Dispensed 150 nL compounds to assay plate (Corning 3573) in column 3-22. Dispensed 150 nL DMSO to Min and Max control wells in column 1-2 and column 23-24.
• (1) Assay buffer was prepared (20 mM Tris pH 7.5, 100 mM KCl, 0.1% BSA, 0.01% Tween). • (2) […] buffer was added to Min control wells (Column 1-2). • (3) Enzyme was diluted to 2× with buffer (2 nM OGG1+4 nM APEX1). Dispensed […] (except Min control wells). Shake at 500 rpm at RT for 20 min. • (4) DNA substrate diluted to 2× with buffer (12 nM). Dispensed […]. Final concentration: 1 nM OGG1+2 nM APEX+6 nM dsDNA. Shake at RT for 40 min. • (5) Ex520/Em600 (TAMRA) was read.
• (1) Calculated respective mean of Max and Min control wells. • (2) Converted data to percentage inhibition.
Inhibition (%)=(Max mean−value)/(Max mean−Min mean)×100% • (3) Calculated sigmoidal curve (3-parameter) and IC50 (using GraphPad Prism software).

Sequence of hOGG1 (O15527 12-323): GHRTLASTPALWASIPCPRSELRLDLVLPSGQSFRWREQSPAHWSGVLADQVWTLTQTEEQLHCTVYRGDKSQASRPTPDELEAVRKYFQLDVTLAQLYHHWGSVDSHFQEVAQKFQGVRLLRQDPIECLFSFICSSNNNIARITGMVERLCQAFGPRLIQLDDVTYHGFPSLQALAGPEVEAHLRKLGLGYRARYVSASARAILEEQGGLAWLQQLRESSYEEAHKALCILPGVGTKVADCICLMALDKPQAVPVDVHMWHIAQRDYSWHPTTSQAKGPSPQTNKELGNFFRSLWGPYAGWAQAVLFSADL

`COc1cc(NC(=O)[C@H]2CC[C@@H](N3Cc4c(C)cccc4C3=O)CC2)ccc1C1CC1` [Example 121, (1s,4s)-N-(4-Cyclopropyl-3-methoxyphenyl)-4-(4-methyl-1-oxoisoindolin-2-yl)cyclohexane-1-carboxamide] and `COc1cc(NC(=O)[C@H]2CC[C@@H](N3Cc4c(cccc4C4CC4)C3=O)CC2)ccc1C` [Example 151, (1s,4s)-4-(4-Cyclopropyl-1-oxoisoindolin-2-yl)-N-(3-methoxy-4-methylphenyl)cyclohexanecarboxamide] fall in the same range of IC50: 1000 to 10000 nM for the first, 1000 to 10000 nM for the second.

Compared with `CNC(=O)c1cc(C)c2c(c1)NC(=O)N([C@H]1CC[C@@H](C(=O)Nc3ccc(C)c(OC)c3)CC1)C2` [Example 80, 3-((1s,4s)-4-(3-methoxy-4-methylphenylcarbamoyl)cyclohexyl)-N,5-dimethyl-2-oxo-1,2,3,4-tetrahydroquinazoline-7-carboxamide], `COc1cc(NC(=O)[C@H]2CC[C@@H](N3Cc4c(C)cc(Br)cc4NC3=O)CC2)ccc1C` [Example 74, (1s,4s)-4-(7-bromo-5-methyl-2-oxo-1,2-dihydroquinazolin-3(4H)-yl)-N-(3-methoxy-4-methylphenyl)cyclohexanecarboxamide] is higher in IC50: less than 100 nM for the first, 100 to 1000 nM for the second.

`COc1cc(NC(=O)[C@H]2CC[C@@H](N3Cc4c(C)ccc(CNS(C)(=O)=O)c4NC3=O)CC2)ccc1C` [Example 24, (1s,4s)-N-(3-Methoxy-4-methylphenyl)-4-(5-methyl-8-(methylsulfonamidomethyl)-2-oxo-1,2-dihydroquinazolin-3(4H)-yl)cyclohexanecarboxamide] and `COc1cc(NC(=O)[C@H]2CC[C@@H](N3Cc4c(C)cc(N)cc4NC3=O)CC2)ccc1C` [Example 76, (1s,4s)-4-(7-amino-5-methyl-2-oxo-1,2-dihydroquinazolin-3(4H)-yl)-N-(3-methoxy-4-methylphenyl)cyclohexanecarboxamide] cannot be ordered by IC50: less than 100 nM for the first, less than 100 nM for the second.

`COc1ccc(NC(=O)[C@]2(C)CC[C@@H](N3Cc4c(C)cccc4NC3=O)CC2)cc1C` (single isomer, unassigned) [Example 106, (1r,4r)-N-(4-methoxy-3-methylphenyl)-1-methyl-4-(5-methyl-2-oxo-1,2-dihydroquinazolin-3(4H)-yl)cyclohexanecarboxamide] and `COc1ccc(NC(=O)[C@]2(C)CC[C@@H](N3Cc4c(C)cccc4NC3=O)CC2)cc1Cl` (single isomer, unassigned) [Example 104, (1r,4r)-N-(3-chloro-4-methoxyphenyl)-1-methyl-4-(5-methyl-2-oxo-1,2-dihydroquinazolin-3(4H)-yl)cyclohexanecarboxamide] fall in the same range of IC50: 1000 to 10000 nM for the first, 1000 to 10000 nM for the second.

Going from `COc1ccc(NC(=O)[C@]2(C)CC[C@H](N3Cc4c(C)cccc4NC3=O)CC2)cc1C#N` (single isomer, unassigned) [Example 107, (1s,4s)-N-(3-cyano-4-methoxyphenyl)-1-methyl-4-(5-methyl-2-oxo-1,2-dihydroquinazolin-3(4H)-yl)cyclohexanecarboxamide] to `COc1cc(NC(=O)[C@H]2CC[C@@H](N3Cc4c(C)cccc4C3=O)CC2)ccc1C#N` [Example 265, (1s,4s)-N-(4-Cyano-3-methoxyphenyl)-4-(4-methyl-1-oxoisoindolin-2-yl)cyclohexanecarboxamide], the IC50 rises from less than 100 nM to greater than 10000 nM.

First: Cc1ccc(NC(=O)[C@H]2CC[C@@H](N3Cc4c(C)cccc4C3=O)CC2)cc1C#N [Example 218, (1s,4s)-N-(3-Cyano-4-methylphenyl)-4-(4-methyl-1-oxoisoindolin-2-yl)cyclohexanecarboxamide]
Second: Cc1ccc(NC(=O)[C@H]2CC[C@@H](N3Cc4c(C)cccc4C3=O)CC2)cc1Br [Example 124, (1s,4s)-N-(3-Bromo-4-methylphenyl)-4-(4-methyl-1-oxoisoindolin-2-yl)cyclohexane-1-carboxamide]
The IC50 of the first is higher: 1000 to 10000 nM for the first, 100 to 1000 nM for the second. The second is the more potent here.

First: COc1ccc(NC(=O)[C@H]2CC[C@@H](N3Cc4c(C)cccc4C3=O)CC2)cc1OC [Example 219, (1s,4s)-N-(3,4-dimethoxyphenyl)-4-(4-methyl-1-oxoisoindolin-2-yl)cyclohexanecarboxamide]
Second: COc1cc(NC(=O)[C@H]2CC[C@@H](N3Cc4c(O)cccc4C3=O)CC2)ccc1C [Example 197, (1s,4s)-4-(4-Hydroxy-1-oxoisoindolin-2-yl)-N-(3-methoxy-4-methylphenyl)cyclohexanecarboxamide]
The IC50 of the first is lower: 100 to 1000 nM for the first, 1000 to 10000 nM for the second. The first is the more potent here.

`COc1cc(NC(=O)[C@H]2CC[C@@H](N3Cc4c(cccc4C(F)(F)F)NC3=O)CC2)ccc1C` [Example 70, (1s,4s)-N-(3-methoxy-4-methylphenyl)-4-(2-oxo-5-(trifluoromethyl)-1,2-dihydroquinazolin-3(4H)-yl)cyclohexanecarboxamide] and `COc1cc(NC(=O)[C@H]2CC[C@@H](N3Cc4c(C)cccc4C3=O)CC2)ccc1C(F)(F)F` [Example 258, (1s,4s)-N-(3-Methoxy-4-(trifluoromethyl)phenyl)-4-(4-methyl-1-oxoisoindolin-2-yl)cyclohexanecarboxamide] fall in the same range of IC50: 100 to 1000 nM for the first, 100 to 1000 nM for the second.

First: COc1cc(NC(=O)[C@H]2CC[C@@H](N3Cc4c(Br)cc(NCCN5CCOCC5)cc4C3=O)CC2)ccc1C [Example 203, (1s,4s)-4-(4-Bromo-6-(2-morpholinoethylamino)-1-oxoisoindolin-2-yl)-N-(3-methoxy-4-methylphenyl)cyclohexanecarboxamide]
Second: COc1cc(NC(=O)[C@H]2CC[C@@H](N3Cc4c(Br)cc(NC(C)C(C)O)cc4C3=O)CC2)ccc1C (some centres unmarked) [Example 178, (1s,4s)-4-(4-Bromo-6-(3-hydroxybutan-2-ylamino)-1-oxoisoindolin-2-yl)-N-(3-methoxy-4-methylphenyl)cyclohexanecarboxamide]
The IC50 of the first is lower: 100 to 1000 nM for the first, 1000 to 10000 nM for the second.

Compared with `Cn1c(NC(=O)[C@H]2CC[C@@H](N3Cc4c(Br)cccc4C3=O)CC2)nc2ccccc21` [Example 190, (1s,4s)-4-(4-Bromo-1-oxoisoindolin-2-yl)-N-(1-methyl-1H-benzo[d]imidazol-2-yl)cyclohexanecarboxamide], `COc1cc(NC(=O)[C@H]2CC[C@@H](N3Cc4c(cccc4C(C)C)C3=O)CC2)ccc1C` [Example 158, (1s,4s)-4-(4-Isopropyl-1-oxoisoindolin-2-yl)-N-(3-methoxy-4-methylphenyl)cyclohexanecarboxamide] is higher in IC50: 1000 to 10000 nM for the first, greater than 10000 nM for the second. The first is the more potent here.

First: C=C(C)c1cccc2c1CN([C@H]1CC[C@@H](C(=O)Nc3ccc(C)c(OC)c3)CC1)C2=O [Example 157, (1s,4s)-N-(3-Methoxy-4-methylphenyl)-4-(1-oxo-4-(prop-1-en-2-yl)isoindolin-2-yl)cyclohexanecarboxamide]
Second: COc1cc(NC(=O)[C@H]2CC[C@@H](N3Cc4c(C)cc(O)cc4OC3=O)CC2)ccc1C [Example 116, (1s,4s)-4-(7-hydroxy-5-methyl-2-oxo-2H-benzo[e][1,3]oxazin-3(4H)-yl)-N-(3-methoxy-4-methylphenyl)cyclohexane-1-carboxamide]
The IC50 of the first is higher: greater than 10000 nM for the first, 100 to 1000 nM for the second.

First: C=Cc1cc(C)c2c(c1)NC(=O)N([C@H]1CC[C@@H](C(=O)Nc3ccc(C)c(OC)c3)CC1)C2 [Example 83, (1s,4s)-N-(3-methoxy-4-methylphenyl)-4-(5-methyl-2-oxo-7-vinyl-1,2-dihydroquinazolin-3(4H)-yl)cyclohexanecarboxamide]
Second: COc1cc(NC(=O)[C@H]2CC[C@@H](N3Cc4c(C)cc(OCCN(C)C)cc4C3=O)CC2)ccc1C [Example 209, (1s,4s)-4-(6-(2-(Dimethylamino)ethoxy)-4-methyl-1-oxoisoindolin-2-yl)-N-(3-methoxy-4-methylphenyl)cyclohexanecarboxamide]
The IC50 of the first is higher: 100 to 1000 nM for the first, less than 100 nM for the second.

First: CCc1ccc(NC(=O)[C@H]2CC[C@@H](N3Cc4c(C)cccc4NC3=O)CC2)cc1C [Example 93, (1s,4s)-N-(4-ethyl-3-methylphenyl)-4-(5-methyl-2-oxo-1,2-dihydroquinazolin-3(4H)-yl)cyclohexanecarboxamide]
Second: COc1cc(NC(=O)[C@H]2CC[C@@H](N3Cc4c(Br)cc(NC(=O)CCN(C)C)cc4C3=O)CC2)ccc1C [Example 204, (1s,4s)-4-(4-Bromo-6-(3-(dimethylamino)propanamido)-1-oxoisoindolin-2-yl)-N-(3-methoxy-4-methylphenyl)cyclohexanecarboxamide]
The IC50 of the first is higher: 100 to 1000 nM for the first, less than 100 nM for the second.
